Data: PubChem BioAssay (NCI)
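Here, GI50 denotes the concentration required for 50% inhibition of growth. TGI denotes the concentration required for complete inhibition of growth.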

Key:
Experiment in all cases: DTP human tumour cell line panel, 384-well format
NCI-H322M lung = system: NCI-H322M lung
NCI-H460 NSCLC = system: NCI-H460 NSCLC
NCI-H522 lung = system: NCI-H522 lung
NCI/ADR-RES ovarian = system: NCI/ADR-RES ovarian
OVCAR-3 ovarian = system: OVCAR-3 ovarian
OVCAR-4 ovarian = system: OVCAR-4 ovarian
OVCAR-5 ovarian = system: OVCAR-5 ovarian
OVCAR-8 ovarian = system: OVCAR-8 ovarian
PC-3 prostate = system: PC-3 prostate
RPMI-8226 leukemia = system: RPMI-8226 leukemia
RXF 393 renal = system: RXF 393 renal
SF-268 CNS = system: SF-268 CNS
SF-295 CNS = system: SF-295 CNS
SF-539 CNS = system: SF-539 CNS
SK-MEL-2 melanoma = system: SK-MEL-2 melanoma
SK-MEL-28 melanoma = system: SK-MEL-28 melanoma
SK-OV-3 ovarian = system: SK-OV-3 ovarian
SN12C renal = system: SN12C renal
SNB-19 CNS = system: SNB-19 CNS
SNB-75 CNS = system: SNB-75 CNS
SR leukemia = system: SR leukemia
SW-620 colon = system: SW-620 colon
T-47D breast = system: T-47D breast
TK-10 renal = system: TK-10 renal
U251 glioblastoma = system: U251 glioblastoma
UACC-257 melanoma = system: UACC-257 melanoma
UACC-62 melanoma = system: UACC-62 melanoma
UO-31 renal = system: UO-31 renal

## CO[C@H]1C[C@@H]2CC[C@@H](C)[C@@](O)(O2)C(=O)C(=O)N2CCCC[C@H]2C(=O)O[C@H]([C@H](C)C[C@@H]2CC[C@@H](O)[C@H](OC)C2)CC(=O)[C@H](C)C=C(C)[C@@H](O)[C@@H](OC)C(=O)[C@H](C)C[C@H](C)/C=C/C=C/C=C1C
NCI-H322M lung
  GI50: 12.7 µM
  TGI: 25.8 µM
NCI-H460 NSCLC
  TGI: 16.8 µM
NCI-H522 lung
  GI50: 6.69 µM
  TGI: 21.4 µM
NCI/ADR-RES ovarian
  GI50: 14.9 µM
  TGI: 34.2 µM
OVCAR-3 ovarian
  GI50: 10.9 µM
  TGI: 24.2 µM
OVCAR-4 ovarian
  GI50: 9.82 µM
  TGI: 25.5 µM
OVCAR-5 ovarian
  GI50: 12.9 µM
  TGI: 27.4 µM
OVCAR-8 ovarian
  GI50: 7.29 µM
  TGI: 22.6 µM
PC-3 prostate
  TGI: 17.9 µM
RPMI-8226 leukemia
  TGI: 4.45 µM
RXF 393 renal
  GI50: 12.5 µM
  TGI: 25.2 µM
SF-268 CNS
  GI50: 10.2 µM
  TGI: 23.8 µM
SF-295 CNS
  TGI: 20 µM
SF-539 CNS
  GI50: 2.53 µM
  TGI: 19.6 µM
SK-MEL-2 melanoma
  GI50: 11.2 µM
  TGI: 27.9 µM
SK-MEL-28 melanoma
  GI50: 12.7 µM
  TGI: 25.5 µM
SK-OV-3 ovarian
  GI50: 10.7 µM
  TGI: 22.9 µM
SN12C renal
  GI50: 7.42 µM
  TGI: 24.5 µM
SNB-19 CNS
  GI50: 6.46 µM
  TGI: 23.2 µM
SNB-75 CNS
  GI50: 13 µM
  TGI: 25.8 µM
SR leukemia
  TGI: 1.89 µM
SW-620 colon
  GI50: 13 µM
  TGI: 26 µM
T-47D breast
  GI50: 1.33 µM
  TGI: 36.6 µM
TK-10 renal
  GI50: 0.518 µM
  TGI: 27.5 µM
U251 glioblastoma
  GI50: 3.94 µM
  TGI: 20.3 µM
UACC-257 melanoma
  GI50: 16 µM
  TGI: 29.6 µM
UACC-62 melanoma
  GI50: 4.54 µM
  TGI: 19.7 µM
UO-31 renal
  GI50: 11 µM
  TGI: 23.2 µM
